{
  "source": "patent US20220217999A1",
  "about": "“METHOD FOR PROTECTING PROTEIN FROM HEAT DAMAGE AND REDUCING RUMEN DEGRADABILITY OF METHIONINE” (AJINOMOTO CO., INC., priority 2019, published 2022)",
  "details": "for 16 hr. RUP, % of CP / Calculated IAP (intestinally available protein), g/100 g distillers grains / RUP digestibility, g/100 g RUP / RUP, % of DG Protein / Undigested CP, % of CP / Undigested CP, % of feed DM: 0.5 h 128° C. autoclave",
  "experimental": "Using a sample of wet distillers grains (“DG”) was obtained from a commercial ethanol plant, treatments were applied in duplicates. The DG was treated with the three levels of DL-methionine shown in Table 1 and heated in an autoclave for 0.5 hour at 128° C. Following heat treatment, samples were dried in a forced oven set at 40° C. Dried samples were composited within treatment and analyzed for RUP and undigested total tract protein using a standard method.",
  "note": "Like-named read-outs stand apart in the source and are kept apart here.",
  "data": [
    {"smiles": "CSCCC(N)C(=O)O", "note": "(racemic) [DL-Methionine]", "values": [
      {"measurement": "16 hr. RUP, % of CP", "setting": "1.0 wt. % DL-Methionine added to distillers grains", "value": "69.2 % of CP"},
      {"measurement": "Calculated IAP (intestinally available protein), g/100 g distillers grains", "setting": "1.0 wt. % DL-Methionine", "value": 15.7, "unit": "g/100 g distillers grains"},
      {"measurement": "RUP digestibility, g/100 g RUP", "setting": "1.0 wt. % DL-Methionine", "value": 72.1, "unit": "g/100 g RUP"},
      {"measurement": "RUP, % of DG Protein", "setting": "1.0 wt. % DL-Methionine", "value": "72.8 % of DG Protein"},
      {"measurement": "Undigested CP, % of CP", "setting": "1.0 wt. % DL-Methionine", "value": "19.3 % of CP"},
      {"measurement": "Undigested CP, % of feed DM", "setting": "1.0 wt. % DL-Methionine", "value": "6.02 % of feed DM"},
      {"measurement": "16 hr. RUP, % of CP", "setting": "1.5 wt. % DL-Methionine added to distillers grains", "value": "71.2 % of CP"},
      {"measurement": "Calculated IAP (intestinally available protein), g/100 g distillers grains", "setting": "1.5 wt. % DL-Methionine", "value": 15.2, "unit": "g/100 g distillers grains"},
      {"measurement": "RUP digestibility, g/100 g RUP", "setting": "1.5 wt. % DL-Methionine", "value": 67.8, "unit": "g/100 g RUP"},
      {"measurement": "RUP, % of DG Protein", "setting": "1.5 wt. % DL-Methionine", "value": "74.8 % of DG Protein"},
      {"measurement": "Undigested CP, % of CP", "setting": "1.5 wt. % DL-Methionine", "value": "22.9 % of CP"},
      {"measurement": "Undigested CP, % of feed DM", "setting": "1.5 wt. % DL-Methionine", "value": "7.08 % of feed DM"},
      {"measurement": "calculated digestibility of RUP, higher compared with Control", "setting": "2% DL-methionine", "value": 13.9, "unit": "%"},
      {"measurement": "total metabolically available protein, higher compared with Control", "setting": "2% DL-methionine sample", "value": 17, "unit": "%"},
      {"measurement": "16 hr. RUP, % of CP", "setting": "2.0 wt. % DL-Methionine added to distillers grains", "value": "67.2 % of CP"},
      {"measurement": "Calculated IAP (intestinally available protein), g/100 g distillers grains", "setting": "2.0 wt. % DL-Methionine", "value": 16.0, "unit": "g/100 g distillers grains"},
      {"measurement": "RUP digestibility, g/100 g RUP", "setting": "2.0 wt. % DL-Methionine", "value": 72.7, "unit": "g/100 g RUP"},
      {"measurement": "RUP, % of DG Protein", "setting": "2.0 wt. % DL-Methionine", "value": "73.3 % of DG Protein"},
      {"measurement": "Undigested CP, % of CP", "setting": "2.0 wt. % DL-Methionine", "value": "18.3 % of CP"},
      {"measurement": "Undigested CP, % of feed DM", "setting": "2.0 wt. % DL-Methionine", "value": "5.85 % of feed DM"},
      {"measurement": "total un-digested protein, lower compared with Control", "setting": "highest level of DL-methionine", "value": 28, "unit": "%"}
    ]}
  ]
}
